SMILES strings stand for the structures.

This test deals with PIK3CA (human) (UniProt P42336). Put plainly: Assessment of PIK3CA Kinase Activity.
PIK3CA (human), sequence (P42336 whole entry, looked up): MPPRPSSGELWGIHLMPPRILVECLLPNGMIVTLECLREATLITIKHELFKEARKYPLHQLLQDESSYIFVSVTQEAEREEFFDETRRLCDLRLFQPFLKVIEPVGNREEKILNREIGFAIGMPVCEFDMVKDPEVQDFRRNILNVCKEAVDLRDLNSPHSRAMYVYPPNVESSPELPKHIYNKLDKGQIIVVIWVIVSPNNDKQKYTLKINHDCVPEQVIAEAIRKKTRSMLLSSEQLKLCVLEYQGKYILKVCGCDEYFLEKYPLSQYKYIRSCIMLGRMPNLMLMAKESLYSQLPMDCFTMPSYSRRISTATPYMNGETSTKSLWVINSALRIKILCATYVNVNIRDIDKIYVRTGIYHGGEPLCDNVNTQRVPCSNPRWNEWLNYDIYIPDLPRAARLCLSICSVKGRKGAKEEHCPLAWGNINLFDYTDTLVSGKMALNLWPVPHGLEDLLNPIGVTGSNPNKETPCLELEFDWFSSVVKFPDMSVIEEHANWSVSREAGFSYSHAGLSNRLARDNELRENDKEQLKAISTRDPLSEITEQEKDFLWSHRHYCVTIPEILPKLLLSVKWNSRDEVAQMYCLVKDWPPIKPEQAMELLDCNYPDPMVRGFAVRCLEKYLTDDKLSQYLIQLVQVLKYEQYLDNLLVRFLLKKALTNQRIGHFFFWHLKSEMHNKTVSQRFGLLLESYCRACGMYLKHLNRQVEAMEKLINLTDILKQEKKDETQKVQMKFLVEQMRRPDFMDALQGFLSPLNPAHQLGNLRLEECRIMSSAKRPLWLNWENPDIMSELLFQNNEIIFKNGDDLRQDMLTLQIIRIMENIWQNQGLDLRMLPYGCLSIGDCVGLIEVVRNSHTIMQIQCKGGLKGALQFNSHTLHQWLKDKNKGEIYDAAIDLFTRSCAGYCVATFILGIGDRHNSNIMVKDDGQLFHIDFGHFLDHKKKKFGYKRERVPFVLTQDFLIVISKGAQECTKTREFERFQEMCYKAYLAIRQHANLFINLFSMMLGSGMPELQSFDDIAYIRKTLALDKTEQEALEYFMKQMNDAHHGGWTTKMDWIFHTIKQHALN
In turn, `COc1ccc2c(c1)OCCn1cc(-c3nc(C)nn3C(C)C)nc1-2` showed an IC50 of less than 1 µM.

In the case of `CC(C)n1nc(N)nc1-c1cn2c(n1)-c1ccc(-c3cnn(CC(C)(C)O)c3)cc1OCC2`, the IC50 is less than 1 µM.

In the case of `CC(C)n1ncnc1-c1cn2c(n1)-c1ccc(OCC(N)=O)cc1OCC2`, the IC50 was less than 1 µM.

`O=C(CO)N1CCC(c2ccc3c(c2)-n2nc(-c4ncnn4CC(F)(F)F)cc2CCO3)CC1` displayed an IC50 of less than 1 µM.

Regarding `CC(C)n1ncnc1-c1cn2c(n1)-c1ccc(C3CN(S(=O)(=O)CCN4CC(F)C4)C3)cc1OCC2`, the IC50 is less than 1 µM.

Molecule `CNC(=O)c1ccc2c(c1)-c1nn(-c3ncnn3C(C)C)cc1CCO2` had an IC50 of less than 1 µM.

Take `COCc1nc(-c2cn3c(n2)-c2ccc(-c4cnn(CC(C)(C)O)c4)cc2OCC3)n(C(C)C)n1`: the IC50 was less than 1 µM.

As to `CC(C)n1ncnc1-c1cn2c(n1)-c1cnc(N3CCN(CC(=O)N(C)C)CC3)cc1OCC2`, the IC50 was less than 1 µM.

`CC(C)n1ncnc1-c1cn2c(n1)-c1ccc(-c3ccc(Cl)cc3)cc1OCC2` yielded an IC50 of less than 1 µM.

`CC(C)n1ncnc1-c1cn2c(n1)-c1ccc(-c3cnn(CCO)c3)cc1OCC2`: the IC50 was less than 1 µM.

The molecule `CC(C)n1nc(N)nc1-c1cn2c(n1)-c1cc(-c3cncnc3)ccc1OCC2` yielded an IC50 of less than 1 µM.

Consider `CC(C)n1ncnc1-c1cn2c(n1)-c1cc(-c3cn[nH]c3)ccc1OCC2`, for which the IC50 was less than 1 µM.

With `CC(C)n1ncnc1-c1cn2c(n1)-c1cnc(N3CCN(CC(N)=O)CC3)cc1OCC2`, the IC50 was less than 1 µM.

As to `CCOc1ccccc1-c1cn2c(n1)-c1ccc(C(=O)OC)cc1OCC2`, the IC50 is less than 1 µM.

Molecule `Nc1nc(-c2cn3c(n2)-c2ccc(-c4ccc(Cl)cc4)cc2OCC3)n(-c2ccccc2Cl)n1` displayed an IC50 of less than 1 µM.

The molecule `CC(C)n1ncnc1-c1cn2c(n1)-c1ccc(N3CCNC(=O)C3)nc1OCC2` returned an IC50 of less than 1 µM.

Molecule `CC(C)n1ncnc1-c1cn2c(n1)-c1ccc(-c3cnc[nH]3)cc1OCC2` displayed an IC50 of less than 1 µM.

`Cc1ncc(-c2ccc3c(c2)OCCn2cc(-c4ncnn4C(C)C)nc2-3)n1CCO`: the IC50 is less than 1 µM.

`Fc1ccc(-n2ncnc2-c2cn3c(n2)-c2cnc(NCc4ncc[nH]4)cc2OCC3)c(F)c1` had an IC50 of less than 1 µM.

Molecule `Cc1nc(-c2cn3c(n2)-c2cnc(N4CCC[C@H]4C(N)=O)cc2OCC3)n(C(C)C)n1` gave an IC50 of less than 1 µM.

Molecule `CC(C)n1nc(CO)nc1-c1cn2c(n1)-c1ccc(-c3cnn(CC(C)(C)O)c3)cc1OCC2` displayed an IC50 of less than 1 µM.

On to `CC(C)n1ncnc1-c1cc2n(n1)-c1cc(C(=O)N3CCN(CC(F)(F)F)CC3)ccc1OCC2`, for which the IC50 is less than 1 µM.

`Cc1nc(-c2cn3c(n2)-c2cnc(N4C[C@@H](O)C[C@H]4C(N)=O)cc2OCC3)n(C(C)C)n1` had an IC50 of less than 1 µM.

On to `Nc1nc(-c2cn3c(n2)-c2cc(-c4cncnc4)ccc2OCC3)n(-c2ccccc2Cl)n1`, for which the IC50 is less than 1 µM.

`Fc1ccc(-n2ncnc2-n2cc3c(n2)-c2ccc(Br)cc2OCC3)c(F)c1` had an IC50 of 0.058 µM.

Molecule `CC(C)n1ncnc1-n1cc2c(n1)-c1ccc(-c3cn[nH]c3)cc1OCC2` yielded an IC50 of less than 1 µM.

Molecule `CS(=O)(=O)c1ccccc1CNc1cc2c(cn1)-c1nc(-c3ncnn3-c3ccc(F)cc3F)cn1CCO2` returned an IC50 of less than 1 µM.

`CC(C)n1ncnc1-c1cn2c(n1)-c1ccc(-c3ccccc3CO)cc1OCC2` came in with an IC50 of less than 1 µM.

`CC(C)n1ncnc1-c1cn2c(n1)-c1ccc(C3CCN(C(C)(C)C(N)=O)CC3)cc1OCC2` registered an IC50 of less than 1 µM.

In turn, `C[C@@H](Oc1ccc2c(c1)OCCn1cc(-c3ncnn3CC(F)(F)F)nc1-2)C(N)=O` showed an IC50 of less than 1 µM.

The molecule `O=C1CCCN1CCNc1cc2c(cn1)-c1nc(-c3ncnn3-c3ccc(F)cc3F)cn1CCO2` showed an IC50 of less than 1 µM.

The molecule `CC(C)n1ncnc1-c1cn2c(n1)-c1ccc(C3CCN(C(=O)C(C)(C)O)CC3)cc1OCC2` came in with an IC50 of less than 1 µM.

The molecule `Cc1nc(-c2cn3c(n2)-c2ccc(C4CCN(C(C)(C)CO)CC4)cc2OCC3)n(C(C)C)n1` returned an IC50 of less than 1 µM.

In turn, `CC(C)n1nc(CO)nc1-c1cn2c(n1)-c1cnc(N(C)C)cc1OCC2` registered an IC50 of less than 1 µM.

`CC(C)n1ncnc1-c1cn2c(n1)-c1ccc(-c3cn[nH]c3)cc1OCC2` showed an IC50 of less than 1 µM.

For `CC(C)N1CCC(c2ccc3c(c2)OCCn2cc(-c4ncnn4C(C)C)nc2-3)CC1`, the IC50 was less than 1 µM.

As for `CC(C)n1ncnc1-c1cn2c(n1)-c1ccc(C3CCN(C(C)(C)CO)CC3)cc1OCC2`, the IC50 was less than 1 µM.

As for `Cc1nc(-c2ccc3c(c2)OCCn2cc(-c4ncnn4C(C)C)nc2-3)cn1CCOC1CCCCO1` (stereo unspecified), the IC50 is less than 1 µM.

Molecule `CC(C)n1ncnc1-c1cc2n(n1)-c1cc(C3CN(CCS(C)(=O)=O)C3)ccc1OCC2` displayed an IC50 of less than 1 µM.

On to `Cc1nc(-c2cn3c(n2)-c2ccc(-c4cnn(CCN5CCOCC5)c4)cc2OCC3)n(C(C)C)n1`, for which the IC50 is less than 1 µM.

`CC(C)n1ncnc1-c1cn2c(n1)-c1cnc(N3CC[C@H](C#N)C3)cc1OCC2` displayed an IC50 of less than 1 µM.

Turning to `CC(C)n1nccc1-c1cn2c(n1)-c1ccc(CN)cc1OCC2`, the IC50 was less than 1 µM.

In turn, `Cc1nc(-c2cn3c(n2)-c2cc(-c4cc[nH]c(=O)c4)ccc2OCC3)n(C(C)C)n1` came in with an IC50 of less than 1 µM.

The molecule `CC(C)n1ncnc1-c1cn2c(n1)-c1ccc(N)cc1OCC2` yielded a half-inhibitory concentration (IC50) of less than 1 µM.

In turn, `NC(=O)CN1CCC(c2ccc3c(c2)-n2nc(-c4ncnn4CC(F)(F)F)cc2CCO3)CC1` registered an IC50 of less than 1 µM.

Molecule `CC(C)n1ncnc1-c1cn2c(n1)-c1ccc(OC(F)F)cc1OCC2` gave an IC50 of less than 1 µM.

For `NC(=O)[C@@H]1CCCN1c1cc2c(cn1)-c1nc(-c3ncnn3-c3ccc(F)cc3F)cn1CCO2`, the half-maximal inhibitory concentration (IC50) was less than 1 µM.

In turn, `CC(C)(CO)N1CCC(c2ccc3c(c2)-c2nn(-c4ncnn4-c4ccc(F)cc4F)cc2CCO3)CC1` displayed an IC50 of less than 1 µM.

Turning to `NC(=O)[C@@H]1CCCCN1c1ccc2c(c1)OCCn1cc(-c3ncnn3CC(F)(F)F)nc1-2`, the IC50 was less than 1 µM.

The molecule `CC(C)n1ncnc1-c1cn2c(n1)-c1ccc(CCS(N)(=O)=O)cc1OCC2` registered an IC50 of less than 1 µM.

`NC(=O)[C@@H]1CCN1c1ccc2c(c1)OCCn1cc(-c3ncnn3CC(F)(F)F)nc1-2` gave an IC50 of less than 1 µM.

Molecule `CC(C)C(Oc1ccc2c(c1)OCCn1cc(-c3ncnn3C(C)C)nc1-2)C(N)=O` (stereo unspecified) displayed an IC50 of less than 1 µM.

Regarding `CC(C)n1ncnc1-c1cc2n(n1)-c1cc(CN3CCN(C(=O)CO)CC3)ccc1OCC2`, the IC50 was less than 1 µM.

Turning to `OCCN1CCC(c2ccc3c(c2)-c2nn(-c4ncnn4-c4ccc(F)cc4F)cc2CCO3)CC1`, the IC50 was less than 1 µM.

`CC(C)n1ncnc1-n1cc2c(n1)-c1cc(C(=O)Nc3cnn(CCO)c3)ccc1OCC2` had an IC50 of less than 1 µM.

Take `CC(C)n1ncnc1-c1cn2c(n1)-c1ccc([C@H](C)C(N)=O)cc1OCC2`: the IC50 is less than 1 µM.

Molecule `CNC(=O)CN1CCC(c2ccc3c(c2)OCCn2cc(-c4ncnn4C(C)C)nc2-3)CC1` registered an IC50 of less than 1 µM.

As to `CC(C)n1nccc1-c1cn2c(n1)-c1cnc(Cl)cc1OCC2`, the IC50 was less than 1 µM.

As to `Cc1nc(-c2cn3c(n2)-c2ccc(-c4cnn(CCO)c4)cc2OCC3)n(C(C)C)n1`, the IC50 was less than 1 µM.

Regarding `CC(C)n1ncnc1-c1cn2c(n1)-c1ccc(COC(N)=O)cc1OCC2`, the IC50 is less than 1 µM.

`COC(=O)c1ccc2c(c1)OCCn1cc(-c3ncnn3CC(F)(F)F)nc1-2` had an IC50 of less than 1 µM.

Molecule `O=C(c1ccc2c(c1)-c1nc(-c3ncnn3-c3ccc(F)cc3F)cn1CCO2)N1CCN(CCO)CC1` returned an IC50 of less than 1 µM.

With `CC(C)n1ccnc1-c1cn2c(n1)-c1cnccc1OCC2`, the IC50 was less than 1 µM.

For the molecule `CC(C)n1ncnc1-c1cn2c(n1)-c1cnccc1OCC2`, the IC50 was less than 1 µM.

Consider `CCN1CCC(c2ccc3c(c2)OCCn2cc(-c4ncnn4C(C)C)nc2-3)CC1`, for which the IC50 was less than 1 µM.

Take `CC(C)n1ncnc1-c1cn2c(n1)-c1cc(N3CCN(C)CC3)ncc1OCC2`: the IC50 is less than 1 µM.

Molecule `CC(C)n1ncnc1-c1cn2c(n1)-c1cnc(N3C[C@H](F)C[C@H]3C(N)=O)cc1OCC2` had an IC50 of less than 1 µM.

Molecule `CC(C)n1ncnc1-c1cn2c(n1)-c1cc(-c3ccc(=O)[nH]c3)ncc1OCC2` came in with an IC50 of less than 1 µM.

Consider `CC(C)n1ncnc1-c1cn2c(n1)-c1ccc(C3CN(CCS(C)(=O)=O)C3)cc1OCC2`, for which the IC50 was less than 1 µM.

As to `Cc1nc(-c2cn3c(n2)-c2cnc(N4CCCC4Cc4ccccc4C)cc2OCC3)n(CC(F)(F)F)n1` (stereo unspecified), the IC50 is less than 1 µM.

In turn, `OCc1nc(-c2cn3c(n2)-c2cnc(N4CCCC4)cc2OCC3)n(CC(F)(F)F)n1` gave an IC50 of less than 1 µM.

In turn, `Cc1ncc(-c2ccc3c(c2)OCCn2cc(-c4ncnn4C(C)C)nc2-3)n1C` showed an IC50 of less than 1 µM.

Consider `CS(=O)(=O)CCNC(=O)c1ccc2c(c1)-c1nc(-c3ncnn3CC(F)(F)F)cn1CCO2`, for which the IC50 is less than 1 µM.

As to `CC(C)[C@@H](Oc1ccc2c(c1)OCCn1cc(-c3ncnn3CC(F)(F)F)nc1-2)C(N)=O`, the IC50 is less than 1 µM.

Regarding `CNc1cc2c(cn1)-c1nc(-c3ncnn3C(C)C)cn1CCO2`, the IC50 is less than 1 µM.

As for `CC(C)n1ncnc1-c1cn2c(n1)-c1ccc(-c3ccc(N)nc3)cc1OCC2`, the IC50 is less than 1 µM.

As to `CC(C)n1ncnc1-c1cn2c(n1)-c1cc(-c3ccc(Cl)cc3)ccc1OCC2`, the IC50 is less than 1 µM.

`CC(C)n1ncnc1-c1cn2c(n1)-c1ccc(NCC(N)=O)cc1OCC2` showed an IC50 of less than 1 µM.

`Cc1nc(-c2cn3c(n2)-c2ccc([C@@H]4CCNC[C@@H]4O)cc2OCC3)n(C(C)C)n1`: the IC50 is less than 1 µM.

`Cc1nc(-c2cn3c(n2)-c2ccc(-c4cnn(CC(C)C(N)=O)c4)cc2OCC3)n(C(C)C)n1` (stereo unspecified) gave an IC50 of less than 1 µM.

As to `CC(C)n1ncnc1-c1cn2c(n1)-c1cc(C(=O)N3CCC(C(C)(C)O)CC3)ccc1OCC2`, the IC50 is less than 1 µM.

`Cc1nc(-c2cn3c(n2)-c2cnc(N)cc2OCC3)n(CC(F)(F)F)n1` had an IC50 of less than 1 µM.

Molecule `Cc1nc(-c2cn3c(n2)-c2cc(-c4cnn(C)c4)ccc2OCC3)n(C(C)C)n1` gave an IC50 of less than 1 µM.

Regarding `CC(C)n1ncnc1-c1cn2c(n1)-c1cc(-c3ccccc3)ccc1OCC2`, the IC50 is less than 1 µM.

As for `CNC(=O)C(C)(C)N1CCC(c2ccc3c(c2)OCCn2cc(-c4ncnn4C(C)C)nc2-3)C(O)C1` (stereo unspecified), the IC50 is less than 1 µM.

`Cc1nc(-c2cn3c(n2)-c2ccc(-c4cnn(C5CN(CCO)C5)c4)cc2OCC3)n(C(C)C)n1`: the IC50 was less than 1 µM.

Usually IC50 stands for the concentration at which inhibition is half-maximal.

The record behind these values is the Kinase Knowledgebase extract (Sharma et al. 2016).
